The values below come from US20160257676A1, “Aminoisoquinoline Derivatives as Protein Kinase Inhibitors” (ETERNITY BIOSCIENCE INC., priority 2012, published 2016).

One assay concerns the target BRAF^V600E (Homo sapiens, UniProt P15056, V600E). As to the kind of experiment: BRAF^V600E enzymatic activity assay (LanthaScreen kinase assay kit, TR-FRET). A general note: Time-resolved FRET reads energy transfer from a long-lived donor to a nearby acceptor.
The next assay relates to A375 cells. As to the kind of experiment: Cell proliferation assay (CellTiter-Glo), A375 cells. It is filed as cell-based. Particulars: Homo sapiens, A-375, 72 h, 3-day treatment, vs vehicle control (1% DMSO), read-out: A375 cell growth IC50. The protocol:
Cell Proliferation Assay:
A375, Colo-205, Calu-6, and SW-480 cells were purchased from American Type Culture Collection (USA). All cells were cultured in the recommended medium and serum concentration. Cells were maintained at 37° C. in a humidified atmosphere with 5% CO2. For cell proliferation assay, cells were seeded in 96-well pates at a density of 1,000 to 5,000 cells per well and cultured overnight at 37° C. in medium supplemented with 5-10% FBS. On the next day, the test articles at various concentrations or vehicle control (1% DMSO) were added into cell culture. After 3-day treatment, the growth of cells was assayed by the CellTiter-Glo® Luminestceaent Cell Viability Assay (Promega).

Chain of BRAF^V600E (P15056 whole entry V600E): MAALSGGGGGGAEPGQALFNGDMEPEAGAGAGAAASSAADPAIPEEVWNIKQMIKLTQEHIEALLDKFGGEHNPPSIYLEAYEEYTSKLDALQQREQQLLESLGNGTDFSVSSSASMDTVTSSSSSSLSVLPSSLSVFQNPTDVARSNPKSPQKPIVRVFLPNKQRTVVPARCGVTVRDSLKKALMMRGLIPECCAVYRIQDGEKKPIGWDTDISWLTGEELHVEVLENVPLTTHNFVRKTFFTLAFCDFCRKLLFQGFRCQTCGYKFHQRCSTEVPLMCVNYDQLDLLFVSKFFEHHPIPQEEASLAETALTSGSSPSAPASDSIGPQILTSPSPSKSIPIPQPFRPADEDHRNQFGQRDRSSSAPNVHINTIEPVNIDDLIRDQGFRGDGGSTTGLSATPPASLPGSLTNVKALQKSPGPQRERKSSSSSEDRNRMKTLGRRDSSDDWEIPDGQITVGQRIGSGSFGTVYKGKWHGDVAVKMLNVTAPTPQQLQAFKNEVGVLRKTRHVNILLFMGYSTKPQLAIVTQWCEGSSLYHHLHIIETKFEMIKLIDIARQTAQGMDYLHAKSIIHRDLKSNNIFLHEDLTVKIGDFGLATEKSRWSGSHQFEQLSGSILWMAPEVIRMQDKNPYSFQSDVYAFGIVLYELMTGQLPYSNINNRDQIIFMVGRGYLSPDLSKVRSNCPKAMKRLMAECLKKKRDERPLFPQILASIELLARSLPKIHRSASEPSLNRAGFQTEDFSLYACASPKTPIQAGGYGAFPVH
Description for BRAF^V600E: The assay was conducted according to the procedure provided in the assay kit. […] The final reaction volume for each reaction was 10 μl. The reaction was stopped by addition of 10 μl of TR-FRET dilution buffer supplemented with kinase quench buffer (10 mM EDTA final) and Tb-anti-pMAP2K1 (2 nM final). […] IC50 value was calculated using appropriate programs in GraphPad Prism by plotting the logarithm of the concentration versus percent inhibition.

As to `CCCS(=O)(=O)Nc1ccc(F)c(-c2ccc3cc(N)ncc3c2)c1F` [Example 1, N-(3-(3-aminoisoquinolin-7-yl)-2,4-difluorophenyl)propane-1-sulfonamide], the IC50 (commonly the concentration that gives 50% inhibition) on BRAF^V600E came out at 8690 nM; in the assay with A375 cells, 103 nM.

Consider `CCCS(=O)(=O)Nc1ccc(F)c(-c2ccc3cc(NC[C@H](C)NC(=O)OC)ncc3c2)c1F` [Example 2, (S)-methyl-1-(7-(2,6-difluoro-3-(propylsulfonamido)phenyl)isoquinolin-3-ylamino)propan-2-ylcarbamate], for which, in the assay with A375 cells, the IC50 is 775 nM.

On to `CCCS(=O)(=O)Nc1ccc(F)c(-c2cc3cnc(N)cc3cc2OC)c1F` [Example 3, N-(3-(3-amino-6-methoxyisoquinolin-7-yl)-2,4-difluorophenyl)propane-1-sulfonamide], for which the IC50 amounted to 799 nM against BRAF^V600E and 1000 nM in the assay with A375 cells. Take `CCCS(=O)(=O)Nc1ccc(F)c(-c2cc3cnc(NC[C@H](C)NC(=O)OC)cc3cc2OC)c1F` [Example 4, methyl N-[(1S)-2-[[7-[2,6-difluoro-3-(propylsulfonylamino)phenyl]-6-methoxy-3-isoquinolyl]amino]-1-methyl-ethyl]carbamate]: the IC50 against BRAF^V600E was found to be 212 nM; in the assay on A375 cells, 19 nM. `CCCS(=O)(=O)Nc1ccc(F)c(-c2cc3cnc(NC[C@@H](C)NC(=O)OC)cc3cc2OC)c1F` [Example 5, methyl N-[(1R)-2-[[7-[2,6-difluoro-3-(propylsulfonylamino)phenyl]-6-methoxy-3-isoquinolyl]amino]-1-methyl-ethyl]carbamate]: the IC50 on BRAF^V600E turned out to be 3660 nM; in the assay with A375 cells, 726 nM. As to `CCCS(=O)(=O)Nc1ccc(F)c(-c2cc3cnc(NC[C@H](C)NC(=O)OC)cc3cc2OCCF)c1F` [Example 6, methyl N-[(1S)-2-[[7-[2,6-difluoro-3-(propylsulfonylamino)phenyl]-6-(2-fluoroethoxy)-3-isoquinolyl]amino]-1-methyl-ethyl]carbamate], the IC50 against BRAF^V600E was determined as 100 nM; in the assay with A375 cells it was 158 nM.

As to `CCCS(=O)(=O)Nc1ccc(F)c(-c2cc3cnc(NC[C@H](C)NC(=O)OC)cc3cc2CC)c1F` [Example 7, methyl N-[(1S)-2-[[7-[2,6-difluoro-3-(propylsulfonylamino)phenyl]-6-ethyl-3-isoquinolyl]amino]-1-methyl-ethyl]carbamate], the IC50 against BRAF^V600E is 560 nM; with A375 cells, 306 nM. For the compound `CCCS(=O)(=O)Nc1ccc(F)c(-c2ccc3c(cnc4[nH]ncc43)c2)c1F` [Example 8, N-(2,4-difluoro-3-(3H-pyrazolo[3,4-c]isoquinolin-7-yl)phenyl)propane-1-sulfonamide], the results for the IC50 at BRAF^V600E and with A375 cells were 70 nM and 227 nM, respectively. In the case of `CCCS(=O)(=O)Nc1ccc(F)c(-c2ccc3c(cnc4[nH]nc(Br)c43)c2)c1F` [Example 9, N-(3-(1-bromo-3H-pyrazolo[3,4-c]isoquinolin-7-yl)-2,4-difluorophenyl)propane-1-sulfonamide], the IC50 in the assay with A375 cells was found to be 145 nM. Take `CCCS(=O)(=O)Nc1ccc(F)c(-c2ccc3c(cnc4[nH]nc(C5CC5)c43)c2)c1F` [Example 10, N-(3-(1-cyclopropyl-3H-pyrazolo[3,4-c]isoquinolin-7-yl)-2,4-difluorophenyl)propane-1-sulfonamide]: the figures for the IC50 against BRAF^V600E and with A375 cells were 2710 nM and 145 nM, respectively. With `CCCS(=O)(=O)Nc1ccc(F)c(-c2ccc3c(cnc4[nH]ncc43)c2)c1Cl` [Example 11, N-(2-chloro-4-fluoro-3-(3H-pyrazolo[3,4-c]isoquinolin-7-yl)phenyl)propane-1-sulfonamide], the values for the IC50 against BRAF^V600E and with A375 cells were 18.3 nM and 95 nM, respectively.

Regarding `CCCS(=O)(=O)Nc1ccc(F)c(-c2ccc3c(cnc4[nH]nc(Br)c43)c2)c1Cl` [Example 12, N-(3-(1-bromo-3H-pyrazolo[3,4-c]isoquinolin-7-yl)-2-chloro-4-fluorophenyl)propane-1-sulfonamide], the IC50 in the assay on A375 cells came to 144 nM.

As to `CCCS(=O)(=O)Nc1ccc(F)c(-c2ccc3c(cnc4[nH]nc(C5CC5)c43)c2)c1Cl` [Example 13, N-(2-chloro-3-(1-cyclopropyl-3H-pyrazolo[3,4-c]isoquinolin-7-yl)-4-fluorophenyl)propane-1-sulfonamide], the results for the IC50 on BRAF^V600E and in the assay with A375 cells were 20 nM and 64 nM, respectively. `O=S(=O)(CCCF)Nc1ccc(F)c(-c2ccc3c(cnc4[nH]ncc43)c2)c1F` [Example 14, N-(2,4-difluoro-3-(3H-pyrazolo[3,4-c]isoquinolin-7-yl)phenyl)-3-fluoropropane-1-sulfonamide]: the IC50 on BRAF^V600E stood at 50 nM; in the assay with A375 cells it was 66 nM. As to `O=S(=O)(CCCF)Nc1ccc(F)c(-c2ccc3c(cnc4[nH]ncc43)c2)c1Cl` [Example 15, N-(2-chloro-4-fluoro-3-(3H-pyrazolo[3,4-c]isoquinolin-7-yl)phenyl)-3-fluoropropane-1-sulfonamide], the results for the IC50 at BRAF^V600E and in the assay with A375 cells were 6.6 nM and 23 nM, respectively. On to `CCCS(=O)(=O)Nc1ccc(Cl)c(-c2ccc3c(cnc4[nH]ncc43)c2)c1Cl` [Example 16, N-(2,4-dichloro-3-(3H-pyrazolo[3,4-c]isoquinolin-7-yl)phenyl)propane-1-sulfonamide], for which the IC50 against BRAF^V600E is 41.3 nM; in the assay on A375 cells, 341 nM. The matching figures for `CCCS(=O)(=O)Nc1ccc(Cl)c(-c2ccc3c(cnc4[nH]ncc43)c2)c1F` [Example 17, N-(4-chloro-2-fluoro-3-(3H-pyrazolo[3,4-c]isoquinolin-7-yl)phenyl)propane-1-sulfonamide]: 118 nM and 131 nM. On to `O=S1(=O)CCCN1c1ccc(F)c(-c2ccc3c(cnc4[nH]ncc43)c2)c1F` [Example 18, N-(2,4-difluoro-3-(3H-pyrazolo[3,4-c]isoquinolin-7-yl)phenyl)-1,3-propanesultam], for which the values for the IC50 against BRAF^V600E and with A375 cells were 3740 nM and 1000 nM, respectively. Turning to `CCCS(=O)(=O)Nc1ccc(F)c(-c2cc3cnc4[nH]ncc4c3cc2OC)c1F` [Example 19, N-(2,4-difluoro-3-(8-methoxy-3H-pyrazolo[3,4-c]isoquinolin-7-yl)phenyl)propane-1-sulfonamide], the IC50 stood at 60 nM at BRAF^V600E and 77 nM in the assay on A375 cells.

On to `CCCS(=O)(=O)Nc1ccc(F)c(-c2cc3cnc4[nH]ncc4c3cc2OC)c1Cl` [Example 20, N-(2-chloro-4-fluoro-3-(8-methoxy-3H-pyrazolo[3,4-c]isoquinolin-7-yl)phenyl)propane-1-sulfonamide], for which the results for the IC50 at BRAF^V600E and in the assay on A375 cells were 10 nM and 47 nM, respectively.

As for `COc1cc2c(cnc3[nH]ncc32)cc1-c1c(F)ccc(NS(=O)(=O)CCCF)c1F` [Example 21, N-(2,4-difluoro-3-(8-methoxy-3H-pyrazolo[3,4-c]isoquinolin-7-yl)phenyl)-3-fluoropropane-1-sulfonamide], the IC50 against BRAF^V600E was 70 nM; in the assay on A375 cells, 94 nM. As to `COc1cc2c(cnc3[nH]ncc32)cc1-c1c(F)ccc(NS(=O)(=O)CCCF)c1Cl` [Example 22, N-(2-chloro-4-fluoro-3-(8-methoxy-3H-pyrazolo[3,4-c]isoquinolin-7-yl)phenyl)-3-fluoropropane-1-sulfonamide], the IC50 at BRAF^V600E was found to be 12 nM; in the assay with A375 cells it was 66 nM. As for `CCCS(=O)(=O)Nc1ccc(F)c(-c2cc3cnc4[nH]nc(C5CC5)c4c3cc2OC)c1F` [Example 23, N-(3-(1-cyclopropyl-8-methoxy-3H-pyrazolo[3,4-c]isoquinolin-7-yl)-2,4-difluorophenyl)propane-1-sulfonamide], the IC50 in the assay with A375 cells was 100 nM. Take `CCCS(=O)(=O)Nc1ccc(F)c(-c2cc3cnc4[nH]nc(C5CC5)c4c3cc2OC)c1Cl` [Example 24, N-(2-chloro-3-(1-cyclopropyl-8-methoxy-3H-pyrazolo[3,4-c]isoquinolin-7-yl)-4-fluorophenyl)propane-1-sulfonamide]: in the assay on A375 cells, the IC50 was 284 nM.

For `COc1cc2c(cnc3[nH]nc(C4CC4)c32)cc1-c1c(F)ccc(NS(=O)(=O)CCCF)c1Cl` [Example 25, N-(2-chloro-3-(1-cyclopropyl-8-methoxy-3H-pyrazolo[3,4-c]isoquinolin-7-yl)-4-fluorophenyl)-3-fluoropropane-1-sulfonamide], the IC50 with A375 cells was 25 nM. On to `COc1cc2c(cnc3[nH]nc(C4CC4)c32)cc1-c1c(F)ccc(NS(=O)(=O)CCCF)c1F` [Example 26, N-(3-(1-cyclopropyl-8-methoxy-3H-pyrazolo[3,4-c]isoquinolin-7-yl)-2,4-difluorophenyl)-3-fluoropropane-1-sulfonamide], for which the IC50 amounted to 48.8 nM at BRAF^V600E and 29.7 nM in the assay on A375 cells. For the compound `CCCS(=O)(=O)Nc1ccc(F)c(-c2ccc3c(cnc4[nH]ccc43)c2)c1F` [Example 27, N-(2,4-difluoro-3-(3H-pyrrolo[2,3-c]isoquinolin-7-yl)phenyl)propane-1-sulfonamide], the IC50 against BRAF^V600E stood at 690 nM; with A375 cells it was 1000 nM. The corresponding values for `CCCS(=O)(=O)Nc1ccc(F)c(-c2ccc3c(cnc4[nH]cnc43)c2)c1F` [Example 28, N-(2,4-difluoro-3-(3H-imidazo[4,5-c]isoquinolin-7-yl)phenyl)propane-1-sulfonamide] are 389 nM and 309 nM.
